US10344071B2, “Identification of novel anti-fibrotic peptide in C-terminal region of the MET receptor tyrosine kinase” (MUSC Foundation for Research Development, priority 2015, dated 2019)
One block for each substance: values may come before it. Ends that are not written are not given here.

Columns and labels:
[1] = system: bleomycin-induced pulmonary fibrosis; settings: mouse, in vivo
Source text: FIG. 14A depicts representative histologic findings of lung inflammation and fibrosis. […] FIG. 14B depicts a quantitative evaluation of fibrotic changes (Ashcroft scores), n=32 (8 mice per group).
Mice (n=6), C57BL/6 male were used in this study. Mice were maintained in animal quarters specially designated for pathogen-free mice and were provided with food and water ad libitum. Lung injury was induced by intratracheal instillation of bleomycin (2 U/kg in saline) under isoflurane anesthesia. Control mice received same volume of saline. […] Control mice received 10 mg/kg scrambled peptide. Animals were sacrificed in 3 weeks, and lungs were harvested and processed for tissue staining.
Sacrificed mice were subjected to midline thoracotomy. […]
To evaluate the stages of lung fibrosis, multiple sections from each lung were stained with Hematoxylin and eosin (H & E staining) or with trichrome staining for collagen and other extracellular matrix proteins. Fibrosis quantification was performed by using 0 (normal) to 8 (total fibrosis) Ashcroft scale (Ashcroft, et al., J Clin Pathol, 1988, 41:467-470). Morphological changes such as the thickness of alveolar septa, accumulation of vascular component and connective tissue, infiltration of inflammatory cells were analyzed. For histological evaluation each specimens were divided in 10 non-overlapping fields and scored independently. […]

[2] = system: scleroderma LF transfected with MET WT or MET D1398G; test: Collagen, SMA, CTGF in transfected scleroderma lung fibroblasts, Western blot; type: cell-based, human; settings: 50 ng/ml for 48 hours
Experimental: FIG. 2, comprising FIG. 2A and FIG. 2B, depicts Expression of type I collagen, SMA, and CCN2 in scleroderma lung fibroblasts (LF) transfected with MET WT and MET D1398G. FIG. 2A depicts transfected SSc LF were serum-starved for 24 hours followed by incubation for 48 hours with recombinant HGF (50 ng/ml). The cells were collected with lysis buffer and analyzed by Western blot with indicated antibodies including MET as a transfection efficiency control. Anti-β-actin antibody was used as a loading control. FIG. 2B depicts quantitative results of densitometric analysis of immunoblots. Values are the mean and SD from four independent experiments.
(§1) Cells were collected and analyzed by immunoblotting as previously described (Bogatkevich et al., J Biol Chem. 2001, 276:45184-45192; Bogatkevich et al., Arthritis Rheum. 2007, 56:3468-3477). Phosphorylation of MET was analyzed using anti-phospho-c-Met [pYpYpY^1230/1234/1235], pY^1349, and pY^1356 antibodies (BioSource International, Inc., Camarillo, Calif.). Total MET was immunobloted using anti-MET (C12) (Santa Cruz Biotechnology, Santa Cruz, Calif.) and anti-MET (25H2) (Cell Signaling, Danvers, Mass.). Anti-type I collagen antibody (Southern Biotechnology, Birmingham, Ala.)), anti-CTGF antibody (Santa Cruz Biotechnology, Santa Cruz, Calif.), and anti-smooth-α-actin antibody (Sigma, St. Louis, Mo.) were also used. […]

MET D1398G = biological target: T1, MET D1398G (Homo sapiens, UniProt P08581, D1380G); test: HGF-induced MET tyrosine phosphorylation in transfected LF and AEC; type: cell-based; settings: HGF 50 ng/ml
T1 construct: The wild type (WT) full-length c-MET cDNA in pLXSN; expressed in transfected cells; host or cells: lung fibroblasts (LF) and A549 alveolar epithelial cells, infected with recombinant adenovirus (pAdTrack-CMV/AdEasy)
Experimental: (§2) FIG. 1, comprising FIG. 1A and FIG. 1B, depicts MET tyrosine phosphorylation in lung fibroblasts (LF) and alveolar epithelial cells (AEC). FIG. 1A depicts a time course of MET WT and MET D1398G tyrosine phosphorylation as determined in LF and AEC incubated with HGF (50 ng/ml) for various time points. Cell extracts were immunoblotted with anti-phospho-MET or anti-MET polyclonal antibodies (see details in Materials and Methods). FIG. 1B depicts quantitative results of densitometric analysis of immunoblots. Values are the mean and SD from three independent experiments.
(§3) Cells were collected and analyzed by immunoblotting as previously described (Bogatkevich et al., J Biol Chem. 2001, 276:45184-45192; Bogatkevich et al., Arthritis Rheum. 2007, 56:3468-3477). Phosphorylation of MET was analyzed using anti-phospho-c-Met [pYpYpY^1230/1234/1235], pY^1349, and pY^1356 antibodies (BioSource International, Inc., Camarillo, Calif.). Total MET was immunobloted using anti-MET (C12) (Santa Cruz Biotechnology, Santa Cruz, Calif.) and anti-MET (25H2) (Cell Signaling, Danvers, Mass.). Anti-type I collagen antibody (Southern Biotechnology, Birmingham, Ala.)), anti-CTGF antibody (Santa Cruz Biotechnology, Santa Cruz, Calif.), and anti-smooth-α-actin antibody (Sigma, St. Louis, Mo.) were also used.
(§4) As an initial approach to evaluate the functional consequences of D1398G mutation, HGF-induced MET autophosphorylation was studied in LF and AEC (A549 cell line) transfected either with MET WT or D1398G mutant. MET tyrosine phosphorylation was assessed using anti-phospho-c-Met[pYpYpY^1230/1234/1235], pY^1349, and pY^1356 antibodies. Treatment with HGF induced rapid phosphorylation of MET WT at tyrosine 1230, 1234, and 1235 in both LF and AEC. Maximal phosphorylation was observed within 5 minutes of HGF treatment and decreased by 20 minutes following HGF treatment (FIG. 1). […] The time course of HGF-induced phosphorylation at tyrosine 1356 in LF resembled tyrosine 1230, 1234, and 1235 phosphorylation with maximal levels observed within 5 minutes of HGF treatment. Tyrosine 1356 phosphorylation in AEC appeared to be stronger than in LF with maximal levels observed within 20 minutes of HGF treatment.

MET WT = biological target: T2, MET WT (Homo sapiens, UniProt P08581); test: as above; type: cell-based; settings: HGF 50 ng/ml
T2 construct: The wild type (WT) full-length c-MET cDNA in pLXSN; expressed in transfected cells; host or cells: lung fibroblasts (LF) and A549 alveolar epithelial cells, infected with recombinant adenovirus (pAdTrack-CMV/AdEasy)
Experimental: as §2, §3, §4

Erk1/2 phosphorylation = test: HGF-induced Erk1/2 phosphorylation in transfected LF and AEC; type: cell-based, human; settings: 50 ng/ml for 10 min
Experimental: (§5) FIG. 4, comprising FIG. 4A through FIG. 4D, depicts the effect of HGF on Ras activation and Erk1/2 phosphorylation in lung fibroblasts (LF) and alveolar epithelial cells (AEC). FIG. 4A depicts HGF-induced Erk1/2 phosphorylation in LF and AEC transfected with MET WT and MET D1398G was determined in cells treated with HGF (50 ng/ml) for 10 min. Cell extracts were immunoblotted with anti-phospho-Erk1/2 or anti-Erk1/2, anti-MET, and anti-β-actin antibodies. FIG. 4B depicts densitometric analysis of phospho-Erk1/2 immunoblots from three independent experiments. FIG. 4C and FIG. 4D depict Ras activity in LF and AEC respectively, transfected with MET WT and MET D1398G treated with and without HGF (50 ng/ml) for 10 min.
The phosphorylation of p42/p44 MAPK isoforms was analyzed using anti-phospho-Erk1/2 and Erk1/2 antibodies in accordance with the manufacturer's instructions (Cell Signaling Technology, Danvers, Mass.). Immunoblots were routinely stripped and reblotted with anti-β-actin antibody (Sigma, St. Louis, Mo.) as a loading control.
To investigate whether the D1398G mutation affects MAPK signaling pathways, the Erk1/2 phosphorylation was examined. Basal and HGF-induced Erk1/2 phosphorylation were more prominent in AEC as compared with LF. […] The basal level of nonphosphorylated Erk1/2 in LF and AEC was not affected either by HGF stimulation or by transfection with D1398G mutation.

Ras = Ras Activity Assay (G-LISA, Ras-GTP); type: cell-based, human; settings: 50 ng/ml; LF and AEC transfected with MET WT
Experimental: as §5
G-LISA Kit (Cytoskeleton Inc., Denver, Colo.) was used to measure endogenous Ras-GTP levels. […] Bound Ras-GTP levels were determined by anti-Ras primary antibody followed by horseradish peroxidase-conjugated secondary antibody. A peroxidase substrate was applied, and the plates were read at 450 nm on a spectrophotometer.
HGF-induced phosphorylation of Erk1/2 is mediated by Ras (Campbell, et al., Oncogene, 1998, 17:1395-413). To investigate whether D1398G mutation affects MET-dependent Ras activation, Ras-GTP in LF and in AEC transfected with MET WT and with MET D1398G was measured.

[3] = system: normal LF transfected with MET WT or MET D1398G; test: Collagen, SMA, CTGF in transfected TGFβ-stimulated normal lung fibroblasts, Western blot; type: cell-based, human; settings: 48 hours
Experimental: FIG. 3, comprising FIG. 3A through FIG. 3D, depicts expression of type I collagen, SMA, and CCN2 in normal lung fibroblasts (LF) transfected with MET WT and MET D1398G. Transfected […] lung fibroblasts were serum-starved for 24 hours followed by incubation for 48 hours with recombinant TGFβ (5 ng/ml) and/or HGF (50 ng/ml). FIG. 3A depicts that the cells were collected with lysis buffer and analyzed by Western blot with indicated antibodies including MET as a transfection efficiency control and anti-β-actin antibody as a loading control. FIG. 3B through FIG. 3D depict densitometric analysis of immunoblots for collagen, SMA and CCN2 respectively. Values are the mean and SD from three independent experiments.
as §1, with “Mass.).” for “Mass.). Anti-type I collagen antibody (Southern Biotechnology, Birmingham, Ala.)), anti-CTGF antibody (Santa Cruz Biotechnology, Santa Cruz, Calif.), and anti-smooth-α-actin antibody (Sigma, St. Louis, Mo.) were also used.”

[4] = system: TGFβ-stimulated lung fibroblasts; test: Collagen in TGFβ-stimulated lung fibroblasts, immunoblot; type: cell-based; settings: 1 μg/ml for 24 h; TGFβ 5 ng/ml
Experimental: FIG. 18 depicts M5 peptide inhibits collagen in TGFβ-stimulated lung fibroblasts. Cells were incubated with and without TGFβ (5 ng/ml) and M5 peptide (1 μg/ml) for 24 h and analyzed by immunoblotting using anti-collagen type I antibody. Beta-actin was used as a loading control.
A peptide containing just the M5 sequence (TRPAS (SEQ ID NO: 4)) was generated and was tested for its effect on collagen.

Substance: TRPASFWETS [M10]
- cell viability measured by the ATP-dependent assay (cell viability): does not affect cell viability
- lung histology in control mice that received saline and peptide [1]: normal septa, vascular components, and connective tissue

- tyrosine phosphorylation of MET D1398G in contrast to MET WT (MET D1398G; LF and AEC): decreased and delayed
- time of maximal phosphorylation at tyrosine 1356 (MET D1398G; MET D1398G): 1 h
- time of maximal phosphorylation at tyrosine 1356 (MET WT; AEC): ≤ 20 min
- time of maximal phosphorylation at tyrosine 1356 (MET WT; LF): ≤ 5 min
- time of maximal phosphorylation at tyrosine 1230, 1234, and 1235 (MET WT; LF and AEC): ≤ 5 min
Substance: HGF: recombinant hepatocyte growth factor, ligand of the MET receptor
- expression of collagen, SMA, and CTGF ([2]; scleroderma LF transfected with MET D1398G): not in LF transfected with mutant MET D1398G
- expression of collagen, SMA, and CTGF ([2]; scleroderma LF transfected with MET WT): reduced expression of collagen, SMA, and CTGF
- HGF-induced Erk1/2 phosphorylation, MET WT compared with MET D1398G cells (Erk1/2 phosphorylation): notably higher
- Erk1/2 phosphorylation (Erk1/2 phosphorylation; LF and AEC transfected with MET WT or MET D1398G): further induced Erk1/2 phosphorylation
- total Ras activity (Ras): significant increase in total Ras activity
- levels of collagen, SMA and CTGF [3]: decreased the levels of collagen, SMA and CTGF

Substance: TRPAS (M5 Peptide) [C-terminal fragment of the MET receptor]
- level of collagen versus fibroblasts stimulated with TGFβ [4]: reduced level of collagen
